The supplement of paper PMC10307832

Experiments:
Test in all cases: relative viability (nuclei count vs DMSO), 5 days (fraction); higher = more cells survive
BX 795 + Tozasertib = compound: O=C(NCCCNc1nc(Nc2cccc(NC(=O)N3CCCC3)c2)ncc1I)c1cccs1 [BX 795] + Cc1cc(Nc2cc(N3CCN(C)CC3)nc(Sc3ccc(NC(=O)C4CC4)cc3)n2)n[nH]1 [Tozasertib] (partner 0.1 µM)
Procedure, shortened: (§1)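 Relative viability divides the nuclei count in treated wells by that in vehicle wells. Lung cancer cell lines were seeded in 1536-well plates, dosed by pin tool the next day, and fixed and stained after 5 days in one step with final 0.05% Triton X-100, 1% formaldehyde and 1 ug/ml Hoechst. Dosing was a single drug or a fixed anchor-drug dose plus five library-drug doses (not always all listed) in √10 steps, and values are medians of duplicate plates imaged at 4×.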

BX 795 + Palbociclib = compound: O=C(NCCCNc1nc(Nc2cccc(NC(=O)N3CCCC3)c2)ncc1I)c1cccs1 [BX 795] + CC(=O)c1c(C)c2cnc(Nc3ccc(N4CCNCC4)cn3)nc2n(C2CCCC2)c1=O [Palbociclib] (partner 0.5 µM)
Procedure, shortened: as §1

BX 795 + Linsitinib = compound: O=C(NCCCNc1nc(Nc2cccc(NC(=O)N3CCCC3)c2)ncc1I)c1cccs1 [BX 795] + C[C@]1(O)C[C@@H](c2nc(-c3ccc4ccc(-c5ccccc5)nc4c3)c3c(N)nccn32)C1 [Linsitinib] (partner 1 µM)
Procedure, shortened: as §1

BX 795 + Dasatinib = compound: O=C(NCCCNc1nc(Nc2cccc(NC(=O)N3CCCC3)c2)ncc1I)c1cccs1 [BX 795] + Cc1nc(Nc2ncc(C(=O)Nc3c(C)cccc3Cl)s2)cc(N2CCN(CCO)CC2)n1 [Dasatinib] (partner 0.075 µM)
Procedure, shortened: as §1

BX 795 + Decitabine = compound: O=C(NCCCNc1nc(Nc2cccc(NC(=O)N3CCCC3)c2)ncc1I)c1cccs1 [BX 795] + Nc1ncn([C@H]2C[C@H](O)[C@@H](CO)O2)c(=O)n1 [Decitabine] (partner 2 µM)
Procedure, shortened: as §1

Row | Cell Line | relative viability (BX 795 + Tozasertib; first compound 0.04 µM) | relative viability (BX 795 + Tozasertib; first compound 0.1265 µM) | relative viability (BX 795 + Tozasertib; first compound 0.4 µM) | relative viability (BX 795 + Tozasertib; first compound 1.265 µM) | relative viability (BX 795 + Palbociclib; first compound 0.04 µM) | relative viability (BX 795 + Palbociclib; first compound 0.4 µM) | relative viability (BX 795 + Palbociclib; first compound 1.265 µM) | relative viability (BX 795 + Linsitinib; first compound 0.04 µM) | relative viability (BX 795 + Linsitinib; first compound 0.1265 µM) | relative viability (BX 795 + Linsitinib; first compound 0.4 µM) | relative viability (BX 795 + Linsitinib; first compound 1.265 µM) | relative viability (BX 795 + Dasatinib; first compound 0.04 µM) | relative viability (BX 795 + Dasatinib; first compound 0.1265 µM) | relative viability (BX 795 + Dasatinib; first compound 0.4 µM) | relative viability (BX 795 + Dasatinib; first compound 1.265 µM) | relative viability (BX 795 + Decitabine; first compound 0.04 µM) | relative viability (BX 795 + Decitabine; first compound 0.4 µM) | relative viability (BX 795 + Decitabine; first compound 1.265 µM) | relative viability (BX 795 + Palbociclib; first compound 0.1265 µM) | relative viability (BX 795 + Decitabine; first compound 0.1265 µM)
1 | PC-3 [JPC-3] | 0.931 | 0.851 | 0.881 | 0.872 | 0.539 | 0.57 | 0.543 | 1.02 | 1.02 | 0.979 | 0.976 | 1.02 | 1.04 | 0.979 | 0.975 | 0.834 | 0.907 | 0.725 |  | 
2 | PC-14 | 0.619 | 0.595 | 0.47 | 0.427 | 0.516 | 0.485 | 0.318 | 0.923 | 0.917 | 0.879 | 0.75 | 0.278 | 0.249 | 0.228 | 0.177 | 0.226 | 0.17 | 0.178 | 0.498 | 0.211
3 | RERF-LC-KJ | 0.599 | 0.501 | 0.445 | 0.217 |  | 1.1 | 0.895 | 0.881 | 0.891 | 0.94 | 0.874 | 0.873 | 0.899 | 0.707 | 0.648 | 0.762 | 0.792 | 0.56 | 1.08 | 0.759
4 | SK-LU-1 | 0.312 | 0.356 |  | 0.211 | 0.384 | 0.328 | 0.392 | 1.03 | 1.13 | 0.722 | 0.777 | 0.142 | 0.181 |  | 0.135 | 0.676 | 0.505 | 0.601 | 0.348 | 0.679
5 | SK-MES-1 | 0.883 | 0.832 | 0.905 | 0.223 | 0.303 | 0.271 | 0.286 | 1.11 | 0.985 | 0.992 | 0.745 | 0.416 | 0.453 | 0.164 | 0.223 | 0.503 | 0.392 | 0.39 | 0.302 | 0.358
6 | SW 1573 | 0.209 | 0.185 | 0.142 | 0.155 | 0.537 | 0.468 | 0.172 | 0.962 | 0.873 | 1.02 | 0.629 | 0.512 | 0.456 | 0.452 | 0.161 | 0.651 | 0.581 | 0.381 | 0.428 | 0.652
7 | UMC-11 | 0.189 | 0.195 | 0.185 | 0.22 | 0.301 | 0.306 | 0.333 | 0.751 | 1.02 | 0.95 | 0.348 | 0.412 | 0.407 | 0.291 | 0.169 | 0.457 | 0.436 | 0.593 | 0.355 | 0.688
